From ChEMBL document CHEMBL6127085, “Design, synthesis and evaluation of novel LpxC inhibitors containing a hydrazone moiety as Gram-negative antibacterial agents” (Eur J Med Chem, 2024)
Values after ≈ are worked out from the molar mass of the structure shown. Values belong to the molecule of their own block, whether it stands above or below them.

Columns and labels:
[1] = Stability in rat plasma at 1 uM incubated for 6 hrs by LC-MS/MS analysis; type: ADME, cell-free; details: read-out: Stability
HepG2 = test: Cytotoxicity against human HepG2 cells assessed as inhibition of cell growth measured after 48 hrs by MTT assay; type: functional, cell-based; details: HepG2, 48 h
Escherichia coli = test: Antibacterial activity against Escherichia coli ATCC25922 assessed as reduction in bacterial growth measured after 18 to 24 hrs by CLSI protocol based method; type: functional; details: time 18-24 hrs
[2] = Intrinsic clearance in mouse; type: ADME, organism-based; details: read-out: CLH
Klebsiella pneumoniae [3] = test: Antibacterial activity against Klebsiella pneumoniae clinical isolate KPN+22-1 assessed as reduction in bacterial growth measured after 18 to 24 hrs by CLSI protocol based method; type: functional; details: time 18-24 hrs
Pseudomonas aeruginosa [4] = test: Antibacterial activity against Pseudomonas aeruginosa clinical isolate PAE22-1 assessed as reduction in bacterial growth measured after 18 to 24 hrs by CLSI protocol based method; type: functional; details: time 18-24 hrs
[5] = Stability in human plasma at 1 uM incubated for 6 hrs by LC-MS/MS analysis; type: ADME, cell-free; details: read-out: Stability
[6] = Metabolic stability in human liver microsomes assessed as intrinsic clearance at 1 uM preincubated for 5 mins followed by NADPH addition and measured after 5 to 60 mins by LC-MS analysis; type: ADME, Microsome; details: time 10-65 min, read-out: CLH
[7] = Clearance in male Sprague-Dawley rat at 1 mg/kg, iv measured upto 24 hrs by LC-MS analysis; type: ADME, organism-based; details: in vivo
[8] = Metabolic stability in mouse liver microsomes assessed as intrinsic clearance at 1 uM preincubated for 5 mins followed by NADPH addition and measured after 5 to 60 mins by LC-MS analysis; type: ADME, Microsome; details: liver microsomes, time 10-65 min, read-out: CLH
Pseudomonas aeruginosa [9] = test: Antibacterial activity against Pseudomonas aeruginosa ATCC27853 assessed as reduction in bacterial growth measured after 18 to 24 hrs by CLSI protocol based method; type: functional; details: time 18-24 hrs
[10] = Metabolic stability in human liver microsomes assessed as half life at 1 uM preincubated for 5 mins followed by NADPH addition and measured after 5 to 60 mins by LC-MS analysis; type: ADME, Microsome; details: liver microsomes, time 10-65 min
[11] = Metabolic stability in rat liver microsomes assessed as intrinsic clearance at 1 uM preincubated for 5 mins followed by NADPH addition and measured after 5 to 60 mins by LC-MS analysis; type: ADME, Microsome; details: liver microsomes, time 10-65 min, read-out: CLH
Klebsiella pneumoniae [12] = test: Antibacterial activity against Klebsiella pneumoniae ATCC700603 assessed as reduction in bacterial growth measured after 18 to 24 hrs by CLSI protocol based method; type: functional; details: time 18-24 hrs
[13] = Cmax in male Sprague-Dawley rat at 10 mg/kg, IG measured upto 24 hrs by LC-MS analysis; type: ADME, organism-based; details: in vivo, po
[14] = Half life in male Sprague-Dawley rat at 1 mg/kg, iv measured upto 24 hrs by LC-MS analysis; type: ADME, organism-based; details: in vivo
[15] = Stability in mouse plasma at 1 uM incubated for 6 hrs by LC-MS/MS analysis; type: ADME, cell-free; details: read-out: Stability
[16] = Plasma protein binding in mouse assessed as drug recovery at 1 uM incubated for 6 hrs by LC-MS/MS analysis; type: ADME, cell-free; details: read-out: Drug recovery
[17] = AUC (0 to t) in male Sprague-Dawley rat at 10 mg/kg, IG measured upto 24 hrs by LC-MS analysis; type: ADME, organism-based; details: in vivo, po
[18] = Intrinsic clearance in human; type: ADME; details: read-out: CLH
[19] = Metabolic stability in mouse liver microsomes assessed as half life at 1 uM preincubated for 5 mins followed by NADPH addition and measured after 5 to 60 mins by LC-MS analysis; type: ADME, Microsome; details: liver microsomes, time 10-65 min
[20] = Plasma protein binding in rat assessed as drug recovery at 1 uM incubated for 6 hrs by LC-MS/MS analysis; type: ADME, cell-free; details: read-out: Drug recovery
[21] = Volume of distribution at steady state in male Sprague-Dawley rat at 1 mg/kg, iv measured upto 24 hrs by LC-MS analysis; type: ADME, organism-based; details: in vivo, read-out: Vdss
[22] = AUC (0 to t) in male Sprague-Dawley rat at 1 mg/kg, iv measured upto 24 hrs by LC-MS analysis; type: ADME, organism-based; details: in vivo
[23] = Plasma protein binding in human assessed as drug recovery at 1 uM incubated for 6 hrs by LC-MS/MS analysis; type: ADME, cell-free; details: read-out: Drug recovery
[24] = Half life in male Sprague-Dawley rat at 10 mg/kg, IG measured upto 24 hrs by LC-MS analysis; type: ADME, organism-based; details: in vivo, po
[25] = MRT (0 to t) in male Sprague-Dawley rat at 1 mg/kg, iv measured upto 24 hrs by LC-MS analysis; type: ADME, organism-based; details: in vivo
[26] = Intrinsic clearance in rat; type: ADME; details: read-out: CLH
[27] = MRT (0 to t) in male Sprague-Dawley rat at 10 mg/kg, IG measured upto 24 hrs by LC-MS analysis; type: ADME, organism-based; details: in vivo, po
[28] = Metabolic stability in rat liver microsomes assessed as half life at 1 uM preincubated for 5 mins followed by NADPH addition and measured after 5 to 60 mins by LC-MS analysis; type: ADME, Microsome; details: liver microsomes, time 10-65 min
[29] = Tmax in male Sprague-Dawley rat at 10 mg/kg, IG measured upto 24 hrs by LC-MS analysis; type: ADME, organism-based; details: in vivo, po
[30] = Oral bioavailability in male Sprague-Dawley rat at 10 mg/kg, IG measured upto 24 hrs by LC-MS analysis; type: ADME, organism-based; details: in vivo

Compound: C[C@@H](O)[C@H](NC(=O)c1ccc(C#Cc2ccc(/C=N/N3CCNCC3)cc2)cc1)C(=O)NO
MIC (Escherichia coli): 4 µg/mL (≈ 8.9 µM) | MIC (Klebsiella pneumoniae [3]): > 64 µg/mL | MIC (Pseudomonas aeruginosa [4]): > 64 µg/mL | MIC (Pseudomonas aeruginosa [9]): > 64 µg/mL | MIC (Klebsiella pneumoniae [12]): > 64 µg/mL

Compound: CCN1CCN(/N=C/c2ccc(C#Cc3ccc(C(=O)N[C@H](C(=O)NO)[C@@H](C)O)cc3)cn2)CC1
MIC (Escherichia coli): 16 µg/mL (≈ 33.4 µM) | MIC (Klebsiella pneumoniae [3]): 64 µg/mL (≈ 134 µM) | MIC (Pseudomonas aeruginosa [4]): 8 µg/mL (≈ 16.7 µM) | MIC (Pseudomonas aeruginosa [9]): 4 µg/mL (≈ 8.36 µM) | MIC (Klebsiella pneumoniae [12]): > 64 µg/mL

Compound: C[C@@H](O)[C@H](NC(=O)c1ccc(C#Cc2ccc(/C=N/N3CCN(C)CC3)nc2)cc1)C(=O)NO
MIC (Escherichia coli): 8 µg/mL (≈ 17.2 µM) | MIC (Klebsiella pneumoniae [3]): 32 µg/mL (≈ 68.9 µM) | MIC (Pseudomonas aeruginosa [4]): 8 µg/mL (≈ 17.2 µM) | MIC (Pseudomonas aeruginosa [9]): 8 µg/mL (≈ 17.2 µM)

Compound: C[C@@H](O)[C@H](NC(=O)c1ccc(C#Cc2ccc(/C=N/N3CCCCC3)nc2)cc1)C(=O)NO
MIC (Escherichia coli): 1 µg/mL (≈ 2.22 µM) | MIC (Klebsiella pneumoniae [3]): 8 µg/mL (≈ 17.8 µM) | MIC (Pseudomonas aeruginosa [4]): 2 µg/mL (≈ 4.45 µM) | MIC (Pseudomonas aeruginosa [9]): 16 µg/mL (≈ 35.6 µM)

Compound: CCC(=O)N1CCN(/N=C/c2ccc(C#Cc3ccc(C(=O)N[C@H](C(=O)NO)[C@@H](C)O)cc3)cn2)CC1
MIC (Escherichia coli): 8 µg/mL (≈ 15.8 µM) | MIC (Klebsiella pneumoniae [3]): 32 µg/mL (≈ 63.2 µM) | MIC (Pseudomonas aeruginosa [4]): 16 µg/mL (≈ 31.6 µM) | MIC (Pseudomonas aeruginosa [9]): 16 µg/mL (≈ 31.6 µM) | MIC (Klebsiella pneumoniae [12]): > 64 µg/mL

Compound: C[C@@H](O)[C@H](NC(=O)c1ccc(C#Cc2ccc(/C=N/N3CCN(C(=O)C(C)(C)C)CC3)nc2)cc1)C(=O)NO
MIC (Escherichia coli): 4 µg/mL (≈ 7.48 µM) | MIC (Klebsiella pneumoniae [3]): 16 µg/mL (≈ 29.9 µM) | MIC (Pseudomonas aeruginosa [4]): 16 µg/mL (≈ 29.9 µM) | MIC (Pseudomonas aeruginosa [9]): 16 µg/mL (≈ 29.9 µM) | MIC (Klebsiella pneumoniae [12]): > 64 µg/mL

Compound: C[C@@H](O)[C@H](NC(=O)c1ccc(C#Cc2ccc(/C=N/N3CCOCC3)nc2)cc1)C(=O)NO
MIC (Escherichia coli): 4 µg/mL (≈ 8.86 µM) | MIC (Klebsiella pneumoniae [3]): 16 µg/mL (≈ 35.4 µM) | MIC (Pseudomonas aeruginosa [4]): 2 µg/mL (≈ 4.43 µM) | MIC (Pseudomonas aeruginosa [9]): 16 µg/mL (≈ 35.4 µM)

The next molecules have a lower MIC (Escherichia coli) than those just listed; values first:

remaining at 6 h, 1 µM [1]: 94.5% | MIC (Escherichia coli): 0.5 µg/mL (≈ 1.14 µM) | CLint scaled [2]: 74.2 mL/min/kg | MIC (Klebsiella pneumoniae [3]): 1 µg/mL (≈ 2.29 µM) | MIC (Pseudomonas aeruginosa [4]): 2 µg/mL (≈ 4.57 µM) | remaining at 6 h, 1 µM [5]: 106% | microsomal CLint at 1 µM [6]: 1.38 µL/min/mg | clearance [7]: 66.7 mL/min/kg | microsomal CLint at 1 µM [8]: 18.8 µL/min/mg | MIC (Pseudomonas aeruginosa [9]): 4 µg/mL (≈ 9.14 µM) | half-life at 1 µM [10]: 16.8 h | microsomal CLint at 1 µM [11]: 64 µL/min/mg | MIC (Klebsiella pneumoniae [12]): 8 µg/mL (≈ 18.3 µM) | Cmax [13]: 262 ng/mL | half-life [14]: 0.29 h | remaining at 6 h, 1 µM [15]: 93.2% | recovery at 6 h, 1 µM [16]: 98.6% | AUC(0-t) at 24 h [17]: 243 ng·h/mL | CLint scaled [18]: 1.3 mL/min/kg | half-life at 1 µM [19]: 1.23 h | recovery at 6 h, 1 µM [20]: 91.7% | Vd [21]: 0.98 L/kg | AUC(0-t) at 24 h [22]: 249 ng·h/mL | recovery at 6 h, 1 µM [23]: 101% | half-life [24]: 1.12 h | MRT last at 24 h [25]: 0.24 h | CLint scaled [26]: 115 mL/min/kg | MRT last at 24 h [27]: 1.09 h | half-life at 1 µM [28]: 0.362 h | Tmax [29]: 0.25 h | bioavailability [30]: 10.6%
Compound: C[C@@H](O)[C@H](NC(=O)c1ccc(C#Cc2ccc(CN3CCOCC3)cc2)cc1)C(=O)NO
IC50 (HepG2): > 30 µM

MIC (Escherichia coli): 0.5 µg/mL (≈ 1.02 µM) | MIC (Klebsiella pneumoniae [3]): 2 µg/mL (≈ 4.07 µM) | MIC (Pseudomonas aeruginosa [4]): 2 µg/mL (≈ 4.07 µM) | MIC (Pseudomonas aeruginosa [9]): > 64 µg/mL | MIC (Klebsiella pneumoniae [12]): > 64 µg/mL
Compound: CC(=O)N1CCN(/N=C/c2ccc(C#Cc3ccc(C(=O)N[C@H](C(=O)NO)[C@@H](C)O)cc3)cc2)CC1

MIC (Escherichia coli): 0.5 µg/mL (≈ 1.05 µM) | MIC (Klebsiella pneumoniae [3]): 4 µg/mL (≈ 8.38 µM) | MIC (Pseudomonas aeruginosa [4]): 2 µg/mL (≈ 4.19 µM) | MIC (Pseudomonas aeruginosa [9]): 4 µg/mL (≈ 8.38 µM) | MIC (Klebsiella pneumoniae [12]): 16 µg/mL (≈ 33.5 µM)
Compound: CCN1CCN(/N=C/c2ccc(C#Cc3ccc(C(=O)N[C@H](C(=O)NO)[C@@H](C)O)cc3)cc2)CC1

MIC (Escherichia coli): 0.06 µg/mL (≈ 0.115 µM) | MIC (Klebsiella pneumoniae [3]): 4 µg/mL (≈ 7.67 µM) | MIC (Pseudomonas aeruginosa [4]): 8 µg/mL (≈ 15.3 µM) | MIC (Pseudomonas aeruginosa [9]): 8 µg/mL (≈ 15.3 µM) | MIC (Klebsiella pneumoniae [12]): 16 µg/mL (≈ 30.7 µM)
Compound: CCOC(=O)N1CCN(/N=C/c2ccc(C#Cc3ccc(C(=O)N[C@H](C(=O)NO)[C@@H](C)O)cc3)cc2)CC1

MIC (Escherichia coli): 0.03 µg/mL (≈ 0.058 µM) | CLint scaled [2]: 48 mL/min/kg | MIC (Klebsiella pneumoniae [3]): 2 µg/mL (≈ 3.86 µM) | MIC (Pseudomonas aeruginosa [4]): 4 µg/mL (≈ 7.73 µM) | microsomal CLint at 1 µM [6]: 4.73 µL/min/mg | microsomal CLint at 1 µM [8]: 12.2 µL/min/mg | MIC (Pseudomonas aeruginosa [9]): 2 µg/mL (≈ 3.86 µM) | half-life at 1 µM [10]: 4.9 h | microsomal CLint at 1 µM [11]: 5.05 µL/min/mg | MIC (Klebsiella pneumoniae [12]): 16 µg/mL (≈ 30.9 µM) | CLint scaled [18]: 4.47 mL/min/kg | half-life at 1 µM [19]: 2.08 h | CLint scaled [26]: 9.09 mL/min/kg | half-life at 1 µM [28]: 4.58 h
Compound: C[C@@H](O)[C@H](NC(=O)c1ccc(C#Cc2ccc(/C=N/N3CCN(C(=O)C4CC4)CC3)cc2)cc1)C(=O)NO

MIC (Escherichia coli): 0.03 µg/mL (≈ 0.0615 µM) | MIC (Klebsiella pneumoniae [3]): 2 µg/mL (≈ 4.1 µM) | MIC (Pseudomonas aeruginosa [4]): 8 µg/mL (≈ 16.4 µM) | MIC (Pseudomonas aeruginosa [9]): 2 µg/mL (≈ 4.1 µM) | MIC (Klebsiella pneumoniae [12]): 32 µg/mL (≈ 65.6 µM)
Compound: C#CCN1CCN(/N=C/c2ccc(C#Cc3ccc(C(=O)N[C@H](C(=O)NO)[C@@H](C)O)cc3)cc2)CC1
